# Experimental data reported in patent US20140088184A1 (priority 2011, published 2014).
# Where two headings read alike, the source gives them in different places.
# How the values were obtained:
# [1] = tested on: JFH1-Rluc virus; assay: microbe, parasite or virus in culture; type: cell-based, hepatitis C virus (isolate JFH1, genotype 2a); settings: for inhibition of viral infection / relative viral infection: 50 μM during 2 h infection of Huh-7 cells, luciferase 48 h after infection; for inhibition of viral infection: EGCG from CALBIOCHEM or EXTRASYNTHESE; for relative viral infection: compared with DMSO
# [2] = tested on: HCVpp expressing envelope proteins E1 and E2 of the HCV virus of genotypes 1a, 1b, 2a, 2b, 3, 4, 5, 6; type: cell-based, hepatitis C virus; settings: for relative infection: vs DMSO
# [3] = tested on: JFH1-Rluc virus; assay: Split-up of HCV entry steps (attachment, receptor interaction, endocytosis/fusion), JFH-Luc in Huh-7 cells; settings: for step of HCV entry inhibited: entry split up into its three constituent steps, general statement of the description
# [4] = tested on: HCVcc; assay: Quantitative binding test: HCVcc attachment to Huh-7 cells, HCV RNA by quantitative RT-PCR; type: cell-based, hepatitis C virus; settings: 1 hour at 4° C., MOI 10, vs DMSO; for virus attachment to the cell surface: 50 μM
# Method: HCVcc. For the quantitative “binding” experiments, the HCVcc virus was mass produced and purified by concentration and separation in a gradient of iodixanol. Supernatants of infected cells were precipitated with 8% PEG 6000 at 4° C. overnight and centrifuged for 25 minutes at 10 000 rpm. The pellets were resuspended in 1 mL, of PBS, loaded on a continuous iodixanol gradient (10-40%), and centrifuged at 36 000 rpm for 16 hours at 4° C. Fractions of 500 μL were collected and the titre of each fraction was determined. The most infectious fractions were combined in order to perform the experiments.
# Quantitative “Bindinq” Test. The HCVcc virus was contacted with the Huh-7 cells for 1 hour at 4° C. in the presence of EGCG (50 μM), delphinidin chloride (50 μM) or porcine intestinal heparin (500 ug/mL). After 3 washes with PBS, the total RNAs (viral and cellular) were extracted using the NucleoSpin RNA II kit (Macherey-Nagel, Düren, Germany) and the HCV RNA quantified by quantitative RT-PCR (Castelain et al, J Clin Virol 2004). Heparin was used in parallel as a control.
# In order to determine whether the step of attachment to the cell surface was inhibited by EGCG, quantitative “binding” (or attachment) tests have been carried out. The action of delphinidin chloride was tested in parallel. Heparin, a known inhibitor of HCV attachment to the cell surface, was used as a positive control. The cells were incubated with HCVcc purified to a multiplicity of infection of 10 for 1 hour at 4° C. in the presence of DMSO, 50 M of EGCG, 50 μM of delphinidin chloride or 500 μg/mL of heparin. The cells were washed 3 times with cold PBS and the total RNA extracted. The amount of virus fixed was determined by quantifying the viral genomic RNA by means of quantitative RT-PCR.
# [5] = tested on: HCV viral replication; assay: Viral replication (results not shown); type: cell-based, hepatitis C virus
# [6] = tested on: VSVpp (virus like particles expressing the envelope protein of VSV); type: cell-based, vesicular stomatitis virus
# [7] = tested on: yellow fever virus (YFV); type: cell-based; settings: Huh-7 cells, EGCG 50 μM vs DMSO
# [8] = tested on: Sindbis virus (SINV); type: cell-based; settings: Huh-7 cells, EGCG 50 μM vs DMSO
# [9] = tested on: bovine viral diarrhoea virus (BVDV); type: cell-based; settings: MDBK cells, EGCG 50 μM vs DMSO
# [10] = tested on: JFH1 virus; assay: Cell to cell transmission of HCVcc (JFH1) in Huh-7 cells under agarose; type: cell-based, hepatitis C virus; settings: EGCG 50 μM in 1% agarose medium, 72 h post-infection; control sites average 45
# Method: The Huh-7 cells cultured in 24 well plates are infected with HCVcc over a period of 2 hours. The inoculum was eliminated and replaced by DMEM medium supplemented with GLUTAMAX®-1,10% of FCS and 1% low melting point agarose gel (SeaPlaque® Agarose marketed by LONZA®) containing EGCG (50 μM) or an equivalent volume of Dimethyl Sulfoxide (DMSO) as a control. The cells are incubated at 37° C. over a period of 3 days at the end of which the agarose is eliminated and the infection sites are detected using indirect immunofluorescence for HCV E1 protein as previously described.
# A second mode of viral infection is the transmission of the virus from cell to cell. […] The agarose prevents infection of cells by the virus secreted into the medium and thus makes it possible to observe the cell to cell transmission of the virus by virtue of the cells being in contact amongst themselves.
# At seventy-two hours post-infection, the cells were fixed and infection was detected by immunofluorescence after labelling with an anti-E1 antibody. A step of detection is then carried out with a Cy3 coupled secondary antibody. The nuclei are stained with DAPI staining. The number of cells per infection site was quantified (FIG. 5). In the presence of EGCG the infection sites are much smaller. They contain an average of 3-4 infected cells showing that the virus has not propagated after infecting a cell. […]
# [11] = tested on: HCVcc; assay: microbe, parasite or virus in culture; type: cell-based
# [12] = tested on: HCV JFH1; assay: Successive infections with supernatants of infected cells (passages P0 to P4); settings: 50 μM EGCG, passages P0 to P4, 48 h each
# [13] = genotypes 1a, 1b, 2a, 2b, 3, 4, 5 and 6, general statement of the description, no concentration
compound,measurement,setting,value
"O=C(O[C@@H]1Cc2c(O)cc(O)cc2O[C@@H]1c1ccc(O)c(O)c1)c1cc(O)c(O)c(O)c1 [ECG, (2R,3R)-2-(3,4-Dihydroxyphenyl)-3,4-dihydro-1(2H)-benzopyran-3,5,7-triol 3-(3,4,5-trihydroxybenzoate)]",inhibition of viral infection,[1],about 40%
same,inhibitory effect across viral genotypes of HCV,[2]; [13],observed in all the viral genotypes of HCV
same,step of HCV entry inhibited,[3],only the step of attachment is inhibited
heparin [reference compound],attachment of the virus to the surface of cells,"[4]; 500 μg/mL, positive control",greatly reduced
"O=C(O[C@@H]1Cc2c(O)cc(O)cc2O[C@@H]1c1cc(O)c(O)c(O)c1)c1cc(O)c(O)c(O)c1 [EGCG, (2R,3R)-5,7-dihydroxy-2-(3,4,5-trihydroxyphenyl)-3,4-dihydro-2H-chromen-3-yl 3,4,5-trihydroxybenzoate]",decrease of viral infection (factor),[1]; 50 μM EGCG during 2 h infection of Huh-7 cells,greater than 10
same,inhibition of viral infection,[1],greater than 95%
same,IC50,"[1]; Hepatitis C virus, Huh-7, read-out: IC50 (viral infection)",5 µM
same,effect on viral entry,[1]; non infected cells treated with the molecule before or after infection,no effect
same,inhibitory effect with pretreated virus,[1]; virus incubated 45 minutes with 50 μM EGCG before infection,increase in the inhibitory effect
same,viral replication,[5],not affected
same,effect on the infection by HCVpp of all genotypes tested,[2]; EGCG 50 μM,inhibitory effect
same,relative infection,"[2]; HCVpp genotype 1b, EGCG 50 μM",substantially nil
same,relative infection,"[2]; HCVpp genotype 2a, EGCG 50 μM",substantially nil
same,relative infection,"[2]; HCVpp genotype 2b, EGCG 50 μM",substantially nil
same,relative infection,"[2]; HCVpp genotype 4, EGCG 50 μM",substantially nil
same,inhibitory effect across viral genotypes of HCV,[2]; [13],observed in all the viral genotypes of HCV
same,effect on infection by the VSVpp,[6],no effect
same,relative infection rate,[6],85%
same,effect on cell infection,[7],does not have an inhibitory effect
same,effect on cell infection,[8],does not have an inhibitory effect
same,effect on cell infection,[9],does not have an inhibitory effect
same,number of cells per infection site (average),[10],3-4 infected cells
same,IC50,"[11]; Hepatitis C virus, Huh-7; read-out: IC50 (concentration inhibiting 50% infection)",~11 µM
same,virus attachment to the cell surface,[4],strong decrease
same,percentage of cells infected in each passage of supernatant,[12],elimination of HCV from the culture supernatant from the third passage onwards and the complete elimination in the fourth passage
same,infection (luciferase activity),[3]; 50 μM EGCG during all three steps of viral entry (Sample 5),significant reduction of infection
same,infection (luciferase activity),"[3]; 50 μM EGCG during the step of attachment, 1 h at 4° C. (Sample 2)",significant reduction of infection
same,infection (luciferase activity),"[3]; 50 μM EGCG during the step of endocytosis or fusion, 1 h at 37° C. (Sample 4)",does not seem to have any effect
same,infection (luciferase activity),[3]; 50 μM EGCG during the step of interaction with host cell receptors (Sample 3),does not seem to have any effect
same,step of HCV entry inhibited,[3],only the step of attachment is inhibited
"Oc1cc(O)c2cc(O)c(-c3cc(O)c(O)c(O)c3)[o+]c2c1 [delphinidin chloride, 3,3′,4′,5,5′,7-Hexahydroxyflavylium chloride]",inhibitory effect across viral genotypes of HCV,[2],observed in all the viral genotypes of HCV
same,IC50,"[11]; Hepatitis C virus, Huh-7, read-out: IC50 (concentration inhibiting 50% infection)",~3.5 µM
same,virus attachment to the cell surface,[4],strong decrease
same,step of HCV entry inhibited,[3],only the step of attachment is inhibited
"Oc1cc(O)c2c(c1)O[C@H](c1ccc(O)c(O)c1)[C@@H](O)C2 [(+)-catechin, reference compound]",relative viral infection,[1],identical to that observed for DMSO
"Oc1cc(O)c2c(c1)O[C@H](c1ccc(O)c(O)c1)[C@H](O)C2 [(−)-epicatechin, reference compound]",relative viral infection,[1],identical to that observed for DMSO
"Oc1cc(O)c2c(c1)O[C@H](c1cc(O)c(O)c(O)c1)[C@H](O)C2 [EGC, (2R,3R)-2-(3,4,5-trihydroxyphenyl) chroman-3,5,7-triol]",inhibition of viral infection,[1],~80%
same,inhibitory effect across viral genotypes of HCV,[2]; [13],observed in all the viral genotypes of HCV
same,step of HCV entry inhibited,[3],only the step of attachment is inhibited
